# Assays:
# Assay type in all cases: cell-based, human
# [1] = test system: SJ-GBM2 Glioblastoma multiforme cell line; test: DIMSCAN cytotoxicity, fenretinide + L-threo-sphinganines 3:1 (Example B7); design: key to CI (Combination Index): Chou-Talalay CI: <0.9 synergy, 0.9-1.1 additive, >1.1 antagonism; details: 96 h
# Protocol: (§1) Cytotoxicity Assay—Once again, cytotoxicity is determined using the DIMSCAN assay system (R. Proffitt et al., Cytometry 24, 204-213 (1996); T. Frgala et al., Mol Cancer Ther. 6:886-97, 2007). The system employs digital imaging microscopy to quantify viable cells, which selectively accumulate fluorescein diacetate to become brightly fluorescent. The system is capable of measuring cytotoxicity over a 4-5 log dynamic range by quenching the residual fluorescence of dead and dying cells with eosin Y and quantifying the total fluorescence of viable cells using digital thresholding. Measured fluorescence is directly proportionate to the number of viable cells. A comparison of the total fluorescence of a drug-treated cell population to the fluorescence of a similar number of untreated cells yields a survival fraction. In brief, 2000 to 10,000 cells/well (depending on size and growth rates) are replicate plated into 60 wells of a 96-well tissue culture plate in 0.1 mL of whole medium and allowed to attach overnight. Drug(s) are then added in 0.05 mL of whole medium to the final concentrations indicated. Drugs (fenretinide, and various chain length L-threo-sphinganines) were tested both as single agents and in a 3:1 ratio of fenretinide:sphinganine. C18-L-threo-sphinganine, or “safingol,” was also tested and results shown for reference. There are 12 wells treated per drug concentration. Twelve wells receive drug vehicle-only to the appropriate final concentration and serve as controls for the plate. Cells are incubated for 96 hours at 37° C. in ambient air with 5% CO2. Fluorescein diacetate is then added to each well in 0.05 mL media to a final concentration of 8 microgram/mL. Cells are incubated for a further 15 minutes at 37° C. and 0.03 mL of 0.5% eosin Y is added to each well. Total fluorescence of viable cells is then measured by digital imaging microscopy. Results were graphed as the ratio of the fluoresecence of drug-treated wells to non-drug treated control wells (i.e., Survival Fraction). All tests were performed at least twice. Representative results are shown.
# (§2) The Combination Index (CI) is a term to describe mathematical modeling of the pharmacologic effects on cytotoxicity (cell death) of two drugs in combination based. Cytotoxic “synergy” is defined as a cell death affect which is greater than would be expected from a simple product of the single agent cytotoxicities alone (i.e. an “additive” effect). By Chou-Talalay analysis, a CI<0.9 on a Fraction Affected (“Fa”, i.e. fraction of cells killed) indicates synergy, with smaller numbers indicating greater synergy; a CI of 0.9-1.1 signifies an additive or near-additive effect; and a CI>1.1 means the drug combination is antagonistic.
# Fenretinide and L-threo-sphinganines tested in human Glioblastoma multiforme (brain cancer) cell line, SJ-GBM2.
# [2] = test system: PANC-1 pancreatic adenocarcinoma cell line; test: DIMSCAN cytotoxicity, fenretinide + L-threo-sphinganines 3:1 (Example B18)
# Protocol: as §1, §2
# Fenretinide and L-threo-sphinganines tested in human pancreatic adenocarcinoma (pancreas cancer) cell line, PANC-1.
# [3] = test system: OVCAR-8 ovarian adenocarcinoma cell line; test: DIMSCAN cytotoxicity, fenretinide + L-threo-sphinganines 3:1 (Example B15); design: key to CI (Combination Index): Chou-Talalay CI: <0.9 synergy, 0.9-1.1 additive, >1.1 antagonism; details: 96 h
# Protocol: as §1, §2
# Fenretinide and L-threo-sphinganines tested in human ovarian adenocarcinoma (ovarian cancer) cell line, OVCAR-8.
# [4] = test system: OE-19 esophageal adenocarcinoma cell line; test: DIMSCAN cytotoxicity, fenretinide + L-threo-sphinganines 3:1 (Example B19)
# Protocol: as §1, §2
# (§3) Fenretinide and L-threo-sphinganines tested in human esophageal adenocarcinoma (esophagus cancer) cell lines, OE-19 and OE-33.
# [5] = test system: CHLA-90 pediatric neuroblastoma cell line; test: DIMSCAN cytotoxicity, fenretinide + L-threo-sphinganines 3:1 (Example B21)
# Protocol: as §1, §2
# Fenretinide and L-threo-sphinganines tested in human pediatric neuroblastoma (a nerve-related, solid tumor cancer) cell line, CHLA-90.
# [6] = test system: U-266 Multiple Myeloma cell line; test: DIMSCAN cytotoxicity, fenretinide + L-threo-sphinganines 3:1 (Example B3); details: 96 h
# Protocol: as §1, §2
# Fenretinide and L-threo-sphinganines tested in human Multiple Myeloma (a cancer of the blood and bone marrow) cell line, U-266.
# [7] = test system: A-172 Glioblastoma multiforme cell line; test: DIMSCAN cytotoxicity, fenretinide + L-threo-sphinganines 3:1 (Example B4); design: key to CI (Combination Index): Chou-Talalay CI: <0.9 synergy, 0.9-1.1 additive, >1.1 antagonism; details: 96 h
# Protocol: as §1, §2
# Fenretinide and L-threo-sphinganines tested in human Glioblastoma multiforme (brain cancer) cell line, A-172.
# [8] = test system: OE-33 esophageal adenocarcinoma cell line; test: DIMSCAN cytotoxicity, fenretinide + L-threo-sphinganines 3:1 (Example B19)
# Protocol: as §1, §2, §3
# [9] = 4-HPR 1.5 μM + L-threo-sphinganine 0.5 μM
# [10] = 4-HPR 3 μM + L-threo-sphinganine 1 μM
# [11] = 4-HPR 6 μM + L-threo-sphinganine 2 μM
# [12] = 4-HPR 9 μM + L-threo-sphinganine 3 μM
compound,measurement,setting,value
"CCCCCCCCCCCCCCC[C@H](O)[C@@H](N)CO [C18, (2S,3S)-2-amino-1,3-octadecanediol, reference compound]",CI (Combination Index),[1]; [9],>>1
same,Fa (fraction affected),[1]; [9],0.001
same,CI (Combination Index),[1]; [10],0.6
same,Fa (fraction affected),[1]; [10],0.712
same,CI (Combination Index),[1]; [11],0.6
same,Fa (fraction affected),[1]; [11],0.987
same,CI (Combination Index),[1]; [12],0.7
same,Fa (fraction affected),[1]; [12],0.999
same,CI,[2]; [9],2.5
same,Fa,[2]; [9],0.136
same,CI,[2]; [10],2.1
same,Fa,[2]; [10],0.336
same,CI,[2]; [11],1.4
same,Fa,[2]; [11],0.620
same,CI,[2]; [12],1.5
same,Fa,[2]; [12],0.700
same,CI (Combination Index),[3]; [9],1.5
same,Fa (fraction affected),[3]; [9],0.122
same,CI (Combination Index),[3]; [10],1.5
same,Fa (fraction affected),[3]; [10],0.202
same,CI (Combination Index),[3]; [11],0.7
same,Fa (fraction affected),[3]; [11],0.536
same,CI (Combination Index),[3]; [12],0.5
same,Fa (fraction affected),[3]; [12],0.761
same,CI,[4]; [9],0.7
same,Fa,[4]; [9],0.281
same,CI,[4]; [10],0.4
same,Fa,[4]; [10],0.464
same,CI,[4]; [11],0.2
same,Fa,[4]; [11],0.709
same,CI,[4]; [12],0.2
same,Fa,[4]; [12],0.799
same,CI,[5]; [10],0.5
same,Fa,[5]; [10],0.996
same,CI,[5]; [11],0.3
same,Fa,[5]; [11],0.9993
same,CI,[5]; [12],0.4
same,Fa,[5]; [12],0.9999
same,Fa,[5]; 4-HPR 12 μM + L-threo-sphinganine 4 μM,1
same,CI (Combination Index),[6]; [9],1.4
same,Fa (fraction affected),[6]; [9],0.048
same,CI (Combination Index),[6]; [10],1.5
same,Fa (fraction affected),[6]; [10],0.268
same,CI (Combination Index),[6]; [11],1.3
same,Fa (fraction affected),[6]; [11],0.883
same,CI (Combination Index),[6]; [12],0.8
same,Fa (fraction affected),[6]; [12],0.999
same,CI (Combination Index),[7]; [9],1.3
same,Fa (fraction affected),[7]; [9],0.233
same,CI (Combination Index),[7]; [10],0.5
same,Fa (fraction affected),[7]; [10],0.803
same,CI (Combination Index),[7]; [11],0.3
same,Fa (fraction affected),[7]; [11],0.956
same,CI (Combination Index),[7]; [12],0.1
same,Fa (fraction affected),[7]; [12],0.993
CCCCCCCCC[C@H](O)[C@@H](N)CO [C12],CI (Combination Index),[1]; [9],0.5
same,Fa (fraction affected),[1]; [9],0.133
same,CI (Combination Index),[1]; [10],0.7
same,Fa (fraction affected),[1]; [10],0.271
same,CI (Combination Index),[1]; [11],0.7
same,Fa (fraction affected),[1]; [11],0.930
same,CI (Combination Index),[1]; [12],0.9
same,Fa (fraction affected),[1]; [12],0.968
same,CI,[2]; [9],0.9
same,Fa,[2]; [9],0.232
same,CI,[2]; [10],3.1
same,Fa,[2]; [10],0.119
same,CI,[2]; [11],0.7
same,Fa,[2]; [11],0.757
same,CI,[2]; [12],0.2
same,Fa,[2]; [12],0.977
same,CI (Combination Index),[3]; [9],0.3
same,Fa (fraction affected),[3]; [9],0.382
same,CI (Combination Index),[3]; [10],0.5
same,Fa (fraction affected),[3]; [10],0.445
same,CI (Combination Index),[3]; [11],0.6
same,Fa (fraction affected),[3]; [11],0.634
same,CI (Combination Index),[3]; [12],0.8
same,Fa (fraction affected),[3]; [12],0.704
same,CI,[8]; [9],1.0
same,Fa,[8]; [9],0.376
same,CI,[8]; [10],1.0
same,Fa,[8]; [10],0.618
same,CI,[8]; [11],1.3
same,Fa,[8]; [11],0.758
same,CI,[8]; [12],1.1
same,Fa,[8]; [12],0.925
same,CI,[4]; [9],1.4
same,Fa,[4]; [9],0.345
same,CI,[4]; [10],2.9
same,Fa,[4]; [10],0.325
same,CI,[4]; [11],5.5
same,Fa,[4]; [11],0.506
same,CI,[4]; [12],>>1
same,Fa,[4]; [12],0.632
same,CI (Combination Index),[6]; [9],0.8
same,Fa (fraction affected),[6]; [9],0.176
same,CI (Combination Index),[6]; [10],0.9
same,Fa (fraction affected),[6]; [10],0.326
same,CI (Combination Index),[6]; [11],0.9
same,Fa (fraction affected),[6]; [11],0.697
same,CI (Combination Index),[6]; [12],1.2
same,Fa (fraction affected),[6]; [12],0.748
same,CI (Combination Index),[7]; [9],6.1
same,Fa (fraction affected),[7]; [9],0.024
same,CI (Combination Index),[7]; [10],4.4
same,Fa (fraction affected),[7]; [10],0.065
same,CI (Combination Index),[7]; [11],0.4
same,Fa (fraction affected),[7]; [11],0.849
same,CI (Combination Index),[7]; [12],0.2
same,Fa (fraction affected),[7]; [12],0.981

# Source: patent publication US20110152267A1, “Compositions and Methods for Treating Hyperproliferative Disorders” (Texas Tech University System, priority 2009, published 2011)
